ChEMBL document CHEMBL1141389, “Bioactive diterpenes from Orthosiphon labiatus and Salvia africana-lutea” (J Nat Prod, 2007)
pIC50: −log10 of the molar value. ≈ marks a conversion by molar mass, not a printed value. Calls of active or inactive are those of the source. The rule behind the calls is not given here.

Tests used:
[1] = tested on: MCF7; test: Cytotoxicity against human MCF7 cells at 650 uM; format: cell-based; conditions: mcf7, 650 µM
[2] = tested on: Mycobacterium tuberculosis; test: Antimycobacterial activity against Mycobacterium tuberculosis H37Rv ATCC 27294 at 650 uM; format: functional, organism-based
[3] = tested on: MCF7; test: Cytotoxicity against human MCF7 cells; format: cell-based
[4] = tested on: Mycobacterium tuberculosis; test: Antimycobacterial activity against Mycobacterium tuberculosis H37Rv ATCC 27294; format: functional

Row | SMILES | Activity [1] | Activity [2] | pIC50 [3] | MIC [4] [µM]
1 | CC(C)c1cc2c(c(O)c1O)[C@@]13CCCC(C)(C)[C@@H]1C[C@@H]2OC3=O [CARNOSOL] | Not Active | inactive |  | 
2 | C=C/C(C)=C/C[C@H]1C(=C)CC[C@H]2[C@](C)(CO)C[C@H](O)C[C@]12C |  | inactive | 4.09 | 
3 | COC(=O)[C@]12CCCC(C)(C)[C@@H]1CCc1cc(C(C)C)c(OC)c(O)c12 |  |  | 4.16 | 28 (≈ 10.1 µg/mL)
4 | C=C/C(C)=C/C[C@H]1C(=C)CC[C@@H]2[C@]1(C)C[C@@H](O)C[C@@]2(C)C(=O)O | Not Active |  |  | 157 (≈ 50 µg/mL)
